Test results published in PubChem BioAssay (NCI).
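Step 1: Grow cells in 96-well plates. Step 2: Expose to compound for 48 hours at 5 concentrations. Step 3: Interpolate endpoints linearly; if unreached, use highest concentration. TGI marks complete inhibition of growth.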

Tests used:
Assay in all cases: DTP human tumour cell line panel, 48 h
[1] = tested on: SK-MEL-5 melanoma
[2] = tested on: MDA-N
[3] = tested on: BT-549 breast
[4] = tested on: SK-OV-3 ovarian
[5] = tested on: DU-145 prostate
[6] = tested on: KM12 colon
[7] = tested on: CAKI-1 renal
[8] = tested on: MOLT-4 leukemia
[9] = tested on: NCI-H23 lung
[10] = tested on: EKVX NSCLC
[11] = tested on: HCT-116 colon
[12] = tested on: CCRF-CEM leukemia
[13] = tested on: SF-268 CNS
[14] = tested on: M14 melanoma
[15] = tested on: OVCAR-4 ovarian
[16] = tested on: HOP-92 NSCLC
[17] = tested on: ACHN renal
[18] = tested on: UO-31 renal

| Compound | TGI [1] [µM] | TGI [2] [µM] | TGI [3] [µM] | TGI [4] [µM] | TGI [5] [µM] | TGI [6] [µM] | TGI [7] [µM] | TGI [8] [µM] | TGI [9] [µM] | TGI [10] [µM] | TGI [11] [µM] | TGI [12] [µM] | TGI [13] [µM] | TGI [14] [µM] | TGI [15] [µM] | TGI [16] [µM] | TGI [17] [µM] | TGI [18] [µM] |
| --- | --- | --- | --- | --- | --- | --- | --- | --- | --- | --- | --- | --- | --- | --- | --- | --- | --- | --- |
| CC1(C)CN=C(Nc2ccc(F)c(F)c2)S1 | > 100 | > 100 | > 100 | > 100 | > 100 | > 100 | > 100 | > 100 | > 100 | > 100 | > 100 | > 100 | > 100 | > 100 | > 100 | 90.4 | > 100 | > 100 |
| NC(N)=NS(=O)(=O)c1ccc(NC(=O)c2ccc3[nH]c4ccccc4c(=O)c3c2)cc1 | > 100 | > 100 | > 100 | > 100 | > 100 | > 100 | > 100 | > 100 | > 100 | > 100 | > 100 | > 100 | > 100 | > 100 | > 100 | > 100 | > 100 | > 100 |
| CC(=O)Oc1c(C)c2c(c3ccccc13)OC(C)(C)C2 | 22.9 | 24.9 | 39.4 | 66.3 | 31 | 27.6 | 40.3 | 37.1 | 28 | 34 | 42.9 | > 100 | 28.8 | 30.9 | 30 | 31.9 | 31 | 33.1 |
| O=C(CCOS(=O)(=O)CF)N1CCN(C(=O)CCOS(=O)(=O)CF)CC1 | > 100 | > 100 | > 100 | > 82.5 | > 100 | > 100 | > 100 | 36.3 | > 100 | > 100 | > 100 | > 87.9 | > 100 | > 100 | > 100 | > 100 | > 88.7 | > 100 |
| COC(=O)[C@@H]1Cc2cc(O)c(O)cc2C2(CCN(C)CC2)O1 | > 10 | > 10 | > 10 | > 10 | > 10 | > 10 | > 10 | > 10 | > 10 | > 10 | > 10 | > 10 | > 10 | > 10 | > 10 | > 10 | > 10 |  |
| O=[N+]([O-])c1nccn1CCCNCCCn1ccnc1[N+](=O)[O-] | > 100 | > 100 | > 100 | > 100 | > 100 | > 100 | > 100 | > 100 | > 100 | > 100 | > 100 | > 100 | > 100 | > 100 | > 100 | > 100 | > 100 | > 100 |
| CC(=O)Nc1ccc2cc3[nH]c4cc(NC(C)=O)ccc4c3nc2c1 | > 100 | > 100 | > 100 | > 100 | > 100 | > 100 | > 100 | 77.3 | > 100 | > 100 | > 100 | > 100 | > 100 | > 100 | > 100 | > 100 | > 100 | > 100 |
| COc1ccc(/C=C2/CCS(=O)(=O)c3ccc(C)cc3C2=O)cc1OC |  | 49.5 | 35.6 | > 100 | 15.1 | 23 | 47.5 | 49.6 | 27.3 | 40.3 | 21.8 | 69.8 | > 100 | > 100 | 66.9 | 9.55 | 27.4 | 20.1 |
| C[C@]12CC/C(=N\OCCN3CCCCC3)C=C1CCC1C2CC[C@@]2(C)C1CC[C@]2(C)O (stereo partly drawn) | 32.4 | 11.7 | 33.5 | 35 | 44.8 | 26.6 | 23.7 | 6.84 | 33.5 | 44.6 | 21.3 | 11.3 | 31 | 37.7 | 76 | 26 | 39.6 | 23.2 |
| COc1ccc2c(c1)C(N)=C(Cc1ccncc1)C2=O | > 100 | > 100 | > 100 | > 100 | > 100 | > 100 | > 100 | > 100 | > 100 | > 100 | > 100 | > 100 | > 100 | > 100 | > 100 | > 100 | > 100 | > 100 |
| C=CCn1cnc2c(=O)[nH]c(Nc3ccccc3)nc21 | > 100 | > 100 | > 100 | > 100 | > 100 | > 100 | > 100 | > 100 |  | > 100 | > 100 | > 100 | > 100 | > 100 | > 100 | > 100 | > 100 | > 100 |
| CCN(CC)C(=S)SS(=O)(=O)c1ccccc1[N+](=O)[O-] | 24.8 | > 66.6 | > 80.6 | > 100 | > 66.5 | > 50 | 54.9 | 26 | 99 | > 100 | > 59.1 | > 100 | > 100 | > 48.5 | > 83.3 | > 54.8 | > 78.4 | 31.2 |
| CN(C)c1ccc(C2ON=C(c3ccccc3)N2C23CC4CC(CC(C4)C2)C3)cc1 (stereo not drawn) | > 10 | > 10 | > 10 | > 10 | > 10 | > 10 | > 10 | > 10 | > 10 | > 10 | > 10 | > 10 | > 10 | > 10 | > 10 | > 10 | > 10 |  |
| Oc1ccc(-c2cn3cc(C(F)(F)F)ccc3n2)cc1 | > 100 | > 100 | > 100 | > 100 | > 100 | > 100 | > 100 | > 100 | > 100 | > 100 | > 100 | > 100 | > 100 | > 100 | > 100 | > 100 | > 100 | > 100 |
| COc1ccc2nc3n(c2c1)C(c1c(Cl)cccc1Cl)SC3 (stereo not drawn) | > 100 | > 100 | > 100 | > 100 | > 100 | > 100 | > 100 | > 100 | > 100 | > 100 | > 100 | > 100 |  | > 100 | 65.9 | > 100 | > 100 | > 100 |
| N#CCCN(CCC#N)c1ccc(C(N=Nc2ccc(Cl)cc2)=Nc2ccc(F)cc2)cc1 | > 100 | > 100 | > 100 | > 100 | > 100 | > 100 | > 100 | > 100 | > 100 | > 100 | > 100 | > 100 | > 100 | > 100 | > 100 | > 100 | > 100 | > 100 |
| CC(NC(NC(C)C12CC3CC(CC(C3)C1)C2)=C(C(Cl)=C(Cl)Cl)[N+](=O)[O-])C12CC3CC(CC(C3)C1)C2 (stereo not drawn) | 36.3 | > 100 | > 91.6 | > 100 | > 100 | > 100 | > 100 | > 100 | 34.3 | > 89.4 | 40 | 4.64 | > 59.5 | 48.7 | > 100 | 17.3 | > 100 | > 100 |
| Nc1ccccc1N=Nc1c(S(=O)(=O)O)cc2cc(S(=O)(=O)O)cc(O)c2c1O | > 100 | > 100 | > 100 | > 100 | > 100 | > 100 | > 100 | > 100 | > 100 | > 100 | > 100 | > 100 | > 100 | > 100 | > 100 | > 100 | > 100 | > 100 |
| Cc1cc2c(cc1C)C(=O)/C(=N/Nc1ccc(F)cc1)CCO2 | > 100 | > 100 | > 100 | > 100 | > 100 | > 100 | > 100 | > 100 | > 100 | > 100 | > 100 | > 100 | > 100 | > 100 | > 100 | > 100 | > 100 | > 100 |
| CC1OC(O[C@H]2CC[C@]3(C=O)[C@H]4CC[C@]5(C)[C@H](C6=CC(=O)OC6)CC[C@]5(O)[C@@H]4C=C[C@]3(O)C2)CC(O)C1O (stereo partly drawn) | 0.359 | 0.807 | 0.608 | 1.02 | 0.442 | 2.76 | 0.428 | 0.3 | 0.494 | 0.611 | 0.349 | 0.82 | 0.589 | 0.761 | 0.838 | 2.62 | 0.41 | 0.546 |
| COc1ccc2c(CCNS(=O)(=O)c3ccccc3)c(C(C)=O)[nH]c2c1 | > 68.1 | > 100 | > 100 | > 100 | > 100 | > 100 | > 100 | > 100 | > 100 | > 100 | > 100 | > 100 | > 100 | > 100 | > 100 | > 100 | > 100 | > 100 |
| COC(=O)c1c(C(=O)OC)c2c3ccccc3n(C)c2c2c1c1ccccc1n2C | > 100 | > 100 | > 100 | > 100 | > 100 | > 100 | > 100 | > 100 | > 100 | > 100 | > 100 | > 100 |  | > 100 | > 100 | > 100 | > 100 | > 100 |
| CC(Oc1ccccc1Cl)C(=O)NN1C(=O)CSC1c1ccc(Cl)cc1 (stereo not drawn) | 31.7 | 29.8 | 45.1 | 39.7 | 37.6 | 36.1 | 56.4 |  | 39.2 | 71.6 | 29.3 | 0.381 | 47.6 | 34.5 | 29.3 | 40.7 | 63 | > 100 |
| NC(=S)NS(=O)(=O)c1ccc(F)cc1F | > 100 | > 100 | > 100 | > 100 | > 100 | > 100 | > 100 | > 100 | > 100 | > 100 | > 100 | > 100 | > 100 | > 100 | > 100 | > 100 | > 100 |  |
| O=C(Nn1cnn2c(=O)c3ccccc3nc2c1=O)c1ccccc1 | > 100 | > 100 | > 100 | > 100 | > 100 | > 100 | > 100 |  | > 100 | > 100 | > 100 | > 100 | > 100 | > 100 | > 100 | > 100 | > 100 | > 100 |
| CN(C)c1ccc(C(=NN)c2ccc(N(C)C)cc2)cc1 | > 100 | 24.4 | > 100 | > 85.5 | > 35 | > 100 | > 51 |  | > 37.7 | > 100 | > 100 | 3.41 | > 100 | > 100 | > 100 | > 54.4 | > 78.7 | > 100 |
